The text below walks through data of patent US20260069599A1, “INHIBITORS OF BROMODOMAIN-CONTAINING PROTEIN 4 AND PHOSPHOINOSITIDE 3-KINASE” (Board of Regents of the University of Nebraska, priority 2022, published 2026).

Molecules are shown by their SMILES. Entries after “also recorded” stand apart in the source; their conditions may differ.

The subject of experiment [1] is MB cells (DAOY and HD-MB03). As to the kind of experiment: Colony formation (clonogenic) assay. The experiment is classed as cell-based, human. The note with it: 48 hours treatment, 14-day incubation, both cell lines. The method, then: Approximately 500 MB cells were seeded overnight in 6 well plates and treated with MDP5 at IC50 for the colony formation assay. After 48 hours of incubation, the media was replaced by fresh media and allowed cells to grow for 2 weeks. Then, cells were fixed into 10% formalin and stained with a 0.5% solution of crystal violet dye in 20% methanol. After taking pictures, the colonies were dissolved in 10% acetic acid solution to measure the optical density.
Colony formation ability, cell cycle analysis, and cell apoptosis assay were performed in MB cells in presence of drugs as described (Kumar et al. (2021) Biomaterials 278:121138). For the colony formation assay, after taking images, the colonies were dissolved in 10% acetic acid solution to measure the optical density (OD).

Experiment [2] deals with MB cells. As to the kind of experiment: RT-qPCR of target genes. In kind it is cell-based, human. The note with it: RT-PCR. The method, then: Whole RNAs in cells after treatments were extracted using an RNA extraction kit (RNAeasy, Qiagen) to detect mRNA expression. cDNA templates were synthesized by reverse transcribing the RNA using a High-Capacity RNA-to-cDNA™ Kit (Thermo Fisher). The final RT-qPCR reaction mixture was used consisting of a total volume 10 μl containing […] SYBR Green master mix, 0.5 μl of each primer (10 μM) (Table 1), 2 μl of the cDNA template, and 3.5 μl RNase-free H2O. The relative expression level of the targeted gene was measured with Lightcycler 480 (Roche). The gene expression levels were calculated according to the 2^−ΔΔCq method using β-actin as the internal reference gene. Each assay was repeated≥3 times.

For experiment [3], the system named is DAOY and HD-MB03 spheroids. In words: Tumor spheroid live/dead assay. In kind it is cell-based, human. To be noted: 5.0 μM, 7 days. As for the experimental part:
Tumor spheroids were formed using MB cells following the method described (Bhattarai, et al. (2021) J. Control. Release 329:585-597). For tumor spheroids assay, 1500 and 500 DAOY and HD-MB03 cells, respectively, were suspended in 100 μL media and seeded in ultra-low attachment (ULA) 96-well plate for a week and 50 μL of media was replaced by fresh media every third day and spheroid size was tracked under fluorescent microscope. […] After 7 days of the treatment period, spheroids were stained with Calcein AM (2 μM) and ethidium homodimer-1 (3 μM) (LIVE/DEAD™; L3224) to check the live/dead cells. Images were taken by confocal laser microscope (Zesis LSM 710) with 10× magnification at 40 μm depth.

The subject of experiment [4] is ONS-76 cells. In words: CD15+ tumor propagating cell population by FACS. The experiment is classed as cell-based. To be noted: 5.0 μM, 48 hours, vs control. The method, then:
The tumor propagating cell population in ONS-76 cells was identified based on CD15+ staining by fluorescence-activated cell sorting (FACS) analysis. […] Then, cells were trypsinized and 1×10^6 cells stained with a 5 μL aliquot of APC-CD15 antibody (BioLegend; 301,908) and analyzed with flow cytometry (BD, LSR Fortessa).
On the technique in general: Flow cytometry measures light scatter and fluorescence of single cells or particles in a stream.

Consider `O=c1cc(N2CCOCC2)oc2c(-c3ccc4c(c3)OCCO4)cccc12` [MDP5, 8-(2,3-dihydrobenzo [b][1,4]dioxin-6-yl)-2-morpholino-4H-chromen-4-one], for which, in experiment [1], the colony formation entry was “significant decrease in colony formation potential; also recorded: lower number of colonies in both cell lines; also recorded: significantly decreased the colony formation capacity”. For the same molecule, the “BCL2 mRNA expression” value in experiment [2] (MB cells) was “significantly reduced”. In experiment [2] (vs control), the “cyclin D1 gene expression” value is listed as “decreased significantly”. Further, the “cell viability of tumor spheroids” value in experiment [3] is on record as “significantly decreased”. The “size / formation of tumor spheroids” value in experiment [3] (vs DMSO-treated control) is “decreased the tumor spheroid formation in both MB cells”. Besides, the “percentage of CD15+ cell population” value in experiment [4] was “declined as compared to control cells”.
Consider `O=c1cc(N2CCOCC2)oc2c(-c3ccc4c(c3)OCCO4)csc12` [SF2523, reference compound], for which the “cell viability of tumor spheroids” value in experiment [3] is “significantly decreased”.
